These are literature values, as cited in EP2428201A1, “Oral administration of nucleoside monophosphates” (Merck Serono S.A., priority 2010, dated 2012).

The conditions of the data set: administered orally, compared to the drug given by injection.

Structures are written as SMILES.

In the case of `Nc1nc(Cl)nc2c1ncn2[C@H]1C[C@H](O)[C@@H](CO)O1` [cladribine, 2-chloro-2'-deoxyadenosine], the bioavailability result was “reduced bioavailability”.
